Experimental data taken from PubChem BioAssay (NCI).
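Exposure lasted 48 hours, with cells grown in 96-well plates and compounds tested at five concentrations. At the GI50, growth is halved. The concentration for full growth arrest is given as TGI.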

Tests used:
Experiment in all cases: NCI tumour cell line growth inhibition, 48 h
MDA-N = tested on: MDA-N
SK-OV-3 ovarian = tested on: SK-OV-3 ovarian
OVCAR-5 ovarian = tested on: OVCAR-5 ovarian
UO-31 renal = tested on: UO-31 renal
IGROV1 ovarian = tested on: IGROV1 ovarian
MALME-3M melanoma = tested on: MALME-3M melanoma
DU-145 prostate = tested on: DU-145 prostate
CAKI-1 renal = tested on: CAKI-1 renal
ACHN renal = tested on: ACHN renal
PC-3 prostate = tested on: PC-3 prostate
HT29 colon = tested on: HT29 colon
KM12 colon = tested on: KM12 colon
HCT-116 colon = tested on: HCT-116 colon
SNB-75 CNS = tested on: SNB-75 CNS
SK-MEL-2 melanoma = tested on: SK-MEL-2 melanoma
HOP-92 NSCLC = tested on: HOP-92 NSCLC
M14 melanoma = tested on: M14 melanoma
OVCAR-8 ovarian = tested on: OVCAR-8 ovarian
NCI-H226 lung = tested on: NCI-H226 lung
786-0 renal = tested on: 786-0 renal
SK-MEL-5 melanoma = tested on: SK-MEL-5 melanoma
K-562 leukemia = tested on: K-562 leukemia
UACC-257 melanoma = tested on: UACC-257 melanoma
EKVX NSCLC = tested on: EKVX NSCLC
A498 renal = tested on: A498 renal
BT-549 breast = tested on: BT-549 breast
LOX IMVI melanoma = tested on: LOX IMVI melanoma
OVCAR-3 ovarian = tested on: OVCAR-3 ovarian
TK-10 renal = tested on: TK-10 renal
SN12C renal = tested on: SN12C renal
SK-MEL-28 melanoma = tested on: SK-MEL-28 melanoma
SNB-19 CNS = tested on: SNB-19 CNS
T-47D breast = tested on: T-47D breast
HCC-2998 colon = tested on: HCC-2998 colon
A549 NSCLC = tested on: A549 NSCLC
MOLT-4 leukemia = tested on: MOLT-4 leukemia
CCRF-CEM leukemia = tested on: CCRF-CEM leukemia
NCI-H23 lung = tested on: NCI-H23 lung
U251 CNS = tested on: U251 CNS
HOP-62 NSCLC = tested on: HOP-62 NSCLC
HCT-15 colon = tested on: HCT-15 colon
SW-620 colon = tested on: SW-620 colon
RXF 393 renal = tested on: RXF 393 renal
UACC-62 melanoma = tested on: UACC-62 melanoma
HS 578T breast = tested on: HS 578T breast
MDA-MB-435 = tested on: MDA-MB-435
MDA-MB-231 breast = tested on: MDA-MB-231 breast
RPMI-8226 leukemia = tested on: RPMI-8226 leukemia
NCI-H460 lung = tested on: NCI-H460 lung
SF-539 CNS = tested on: SF-539 CNS
NCI/ADR-RES ovarian = tested on: NCI/ADR-RES ovarian
COLO 205 colon = tested on: COLO 205 colon
HL-60(TB) leukemia = tested on: HL-60(TB) leukemia
MCF7 breast = tested on: MCF7 breast
SF-295 CNS = tested on: SF-295 CNS
OVCAR-4 ovarian = tested on: OVCAR-4 ovarian
NCI-H522 lung = tested on: NCI-H522 lung
SF-268 CNS = tested on: SF-268 CNS

With Cc1cc(C)c2c(=N)c3ccccc3n(CCCCCCCCn3c4ccccc4c(=N)c4c(C)cc(C)nc43)c2n1 the TGI (MDA-N) was 2.78 µM, the TGI (SK-OV-3 ovarian) was 3.18 µM and the TGI (OVCAR-5 ovarian) was 3.69 µM. For the same compound, the TGI (UO-31 renal) was 2.81 µM, the TGI (IGROV1 ovarian) was 2.71 µM and the TGI (MALME-3M melanoma) was 3.11 µM. For the same compound, the TGI (DU-145 prostate) was 3.07 µM, the TGI (CAKI-1 renal) was 3.45 µM and the TGI (ACHN renal) was 2.91 µM. For the same compound, the TGI (PC-3 prostate) was 2.86 µM, the TGI (HT29 colon) was 1.16 µM and the TGI (KM12 colon) was 1.42 µM. The TGI (HCT-116 colon) was 1.59 µM, the TGI (SNB-75 CNS) was 2.18 µM and the TGI (SK-MEL-2 melanoma) was 3.03 µM. The TGI (HOP-92 NSCLC) was 2.87 µM, the TGI (M14 melanoma) was 3.09 µM and the TGI (OVCAR-8 ovarian) was 3.05 µM. It also gave a TGI (NCI-H226 lung) of 3.38 µM, a TGI (786-0 renal) of 2.28 µM and a TGI (SK-MEL-5 melanoma) of 3.23 µM. For the same compound, the TGI (K-562 leukemia) was > 100 µM, the TGI (UACC-257 melanoma) was 3.01 µM and the TGI (EKVX NSCLC) was 2.91 µM. The TGI (A498 renal) was 2.94 µM, the TGI (BT-549 breast) was 3.29 µM and the TGI (LOX IMVI melanoma) was 2.61 µM. For the same compound, the TGI (OVCAR-3 ovarian) was 3.27 µM, the TGI (TK-10 renal) was 4.72 µM and the TGI (SN12C renal) was 2.94 µM. For the same compound, the TGI (SK-MEL-28 melanoma) was 3.02 µM, the TGI (SNB-19 CNS) was 1.85 µM and the TGI (T-47D breast) was 3.23 µM.
O=C(c1ccc(Cl)cc1Cl)N1CCN(C(=O)c2ccc(Cl)cc2Cl)C1=S showed a GI50 (MDA-N) of 20 µM, a TGI (MDA-N) of 43.8 µM and a GI50 (SK-OV-3 ovarian) of 22.8 µM. For the same compound, the TGI (SK-OV-3 ovarian) was 55.4 µM, the GI50 (HCC-2998 colon) was 22 µM and the TGI (HCC-2998 colon) was 44.4 µM. For the same compound, the GI50 (OVCAR-5 ovarian) was 21.6 µM, the TGI (OVCAR-5 ovarian) was 60.4 µM and the GI50 (A549 NSCLC) was 20.1 µM. It also gave a TGI (A549 NSCLC) of 43.2 µM, a GI50 (IGROV1 ovarian) of 21 µM and a TGI (IGROV1 ovarian) of 46 µM. It also gave a GI50 (MALME-3M melanoma) of 25.4 µM, a TGI (MALME-3M melanoma) of 62.7 µM and a GI50 (MOLT-4 leukemia) of 20.5 µM. It also gave a TGI (MOLT-4 leukemia) of 43.5 µM, a GI50 (DU-145 prostate) of 30.6 µM and a TGI (DU-145 prostate) of 98.9 µM. The GI50 (CAKI-1 renal) was 22.1 µM, the TGI (CAKI-1 renal) was 52.1 µM and the GI50 (CCRF-CEM leukemia) was 19.5 µM. The TGI (CCRF-CEM leukemia) was 38.5 µM, the GI50 (ACHN renal) was 21.3 µM and the TGI (ACHN renal) was 45.7 µM. For the same compound, the GI50 (PC-3 prostate) was 22.7 µM, the TGI (PC-3 prostate) was 68.3 µM and the GI50 (HT29 colon) was 20.4 µM. The TGI (HT29 colon) was 48.9 µM, the GI50 (NCI-H23 lung) was 19.8 µM and the TGI (NCI-H23 lung) was 43.4 µM. The GI50 (KM12 colon) was 15.3 µM, the TGI (KM12 colon) was 29.4 µM and the GI50 (U251 CNS) was 17.8 µM. It also gave a TGI (U251 CNS) of 35.3 µM, a GI50 (HOP-62 NSCLC) of 23.1 µM and a TGI (HOP-62 NSCLC) of 66.5 µM. The GI50 (HCT-116 colon) was 23.5 µM, the TGI (HCT-116 colon) was 57.5 µM and the GI50 (HCT-15 colon) was 22.1 µM. It also gave a TGI (HCT-15 colon) of 57.3 µM, a GI50 (SW-620 colon) of 28.2 µM and a TGI (SW-620 colon) of 98.2 µM. It also gave a GI50 (SNB-75 CNS) of 22.3 µM, a TGI (SNB-75 CNS) of 61.7 µM and a GI50 (SK-MEL-2 melanoma) of 18.4 µM. For the same compound, the TGI (SK-MEL-2 melanoma) was 36.2 µM, the GI50 (RXF 393 renal) was 18.5 µM and the TGI (RXF 393 renal) was 43 µM. The GI50 (UACC-62 melanoma) was 17.3 µM, the TGI (UACC-62 melanoma) was 31.6 µM and the GI50 (HS 578T breast) was 41 µM. For the same compound, the TGI (HS 578T breast) was > 100 µM, the GI50 (HOP-92 NSCLC) was 7.83 µM and the TGI (HOP-92 NSCLC) was 28.5 µM. It also gave a GI50 (MDA-MB-435) of 16.4 µM, a TGI (MDA-MB-435) of 33.7 µM and a GI50 (M14 melanoma) of 16.3 µM. The TGI (M14 melanoma) was 30.2 µM, the GI50 (MDA-MB-231 breast) was 19.1 µM and the TGI (MDA-MB-231 breast) was 38.7 µM. The TGI (RPMI-8226 leukemia) was 30.7 µM, the GI50 (OVCAR-8 ovarian) was 22.1 µM and the TGI (OVCAR-8 ovarian) was 48.5 µM. The GI50 (NCI-H226 lung) was 40.9 µM, the TGI (NCI-H226 lung) was 60.1 µM and the GI50 (786-0 renal) was 18.6 µM. For the same compound, the TGI (786-0 renal) was 42.3 µM, the GI50 (NCI-H460 lung) was 35.4 µM and the TGI (NCI-H460 lung) was > 100 µM. It also gave a GI50 (SF-539 CNS) of 27.2 µM, a TGI (SF-539 CNS) of 49.6 µM and a GI50 (K-562 leukemia) of 31.4 µM. The TGI (K-562 leukemia) was > 100 µM, the GI50 (NCI/ADR-RES ovarian) was 24.8 µM and the TGI (NCI/ADR-RES ovarian) was 74.3 µM. The GI50 (UACC-257 melanoma) was 28.2 µM, the TGI (UACC-257 melanoma) was 63.4 µM and the GI50 (EKVX NSCLC) was 20.5 µM. The TGI (EKVX NSCLC) was 48.4 µM, the GI50 (A498 renal) was 16.1 µM and the TGI (A498 renal) was 36.5 µM. The GI50 (COLO 205 colon) was 21 µM, the TGI (COLO 205 colon) was 37.7 µM and the GI50 (HL-60(TB) leukemia) was 16.6 µM. It also gave a TGI (HL-60(TB) leukemia) of 34.1 µM, a GI50 (MCF7 breast) of 18.3 µM and a TGI (MCF7 breast) of 36.7 µM. It also gave a GI50 (BT-549 breast) of 21.1 µM, a TGI (BT-549 breast) of 54.2 µM and a GI50 (LOX IMVI melanoma) of 17.1 µM. The TGI (LOX IMVI melanoma) was 30.8 µM, the GI50 (SF-295 CNS) was 22.9 µM and the TGI (SF-295 CNS) was 61.7 µM. The GI50 (OVCAR-3 ovarian) was 19.7 µM, the TGI (OVCAR-3 ovarian) was 42.4 µM and the GI50 (TK-10 renal) was 36.3 µM. For the same compound, the TGI (TK-10 renal) was > 100 µM, the GI50 (OVCAR-4 ovarian) was 25.8 µM and the TGI (OVCAR-4 ovarian) was 80.9 µM. The GI50 (SN12C renal) was 18.1 µM, the TGI (SN12C renal) was 34.4 µM and the GI50 (NCI-H522 lung) was 18.2 µM. It also gave a TGI (NCI-H522 lung) of 38.1 µM, a GI50 (SK-MEL-28 melanoma) of 18.4 µM and a TGI (SK-MEL-28 melanoma) of 39.4 µM. It also gave a GI50 (SNB-19 CNS) of 24.9 µM, a TGI (SNB-19 CNS) of 65.2 µM and a GI50 (T-47D breast) of 19.5 µM. It also gave a TGI (T-47D breast) of 62.6 µM, a GI50 (SF-268 CNS) of 24.5 µM and a TGI (SF-268 CNS) of 56.1 µM.
